Counter-ions that a name gives are not always drawn.

IC50 data for 18 compounds are collected here from US11130752B2, “Aminopyrimidine compound” (Cardurion Pharmaceuticals, LLC, priority 2018, dated 2021).

The target in this test is T1, human CaMKIIδ (Homo sapiens, UniProt Q13557).
T1 construct: Full-length, glutathione-S-transferase(GST)-tagged, human CaMKIIδ was purchased from Carna Biosciences; purchased Carna Biosciences (CaMKIIδ); Wako Pure Chemical Industries (calmodulin) 02-111
The test can be described thus: In vitro CaMKII inhibitory activity (binding assay, TR-FRET). Particulars: activity ranks. On the procedure: Evaluation of In Vitro CaMKII Inhibitory Activity (Binding Assay)
In vitro CaMKIIδ inhibitory activity was evaluated by a binding assay.
Full-length, glutathione-S-transferase(GST)-tagged, human CaMKIIδ was purchased from Carna Biosciences (product #02-111, Kobe, Japan). Full-length bovine calmodulin was purchased from Wako Pure Chemical Industries (Osaka, Japan). Terbium-labeled anti-GST antibody (Tb-anti-GST Ab) was purchased from Life Technologies (Carlsbad, Calif., USA). Boron-dipyrromethene (BODIPY)-labeled probe ligand was synthesized as described below.
Time-Resolved Fluorescence Resonance Energy Transfer (TR-FRET) Assay
All assays were conducted using 384-well, white, flat-bottomed plates (product #784075, Greiner Bio-One, Frickenhausen, Germany) in kinase assay buffer, which consists of 50 mM HEPES pH 7.6, 10 mM MgCl2, 1 mM EGTA, 0.01% Brig-35, 0.1 mM DTT). The fluorescent probe ligand was added at a final concentration of 300 nM to solutions containing 0.21 nM Tb-anti-GST Ab, 1 mM CaCl2, 10 μg/mL calmodulin, and 0.5 nM GST-tagged CaMKIIδ. After shaded incubation of the protein-probe mixture on ice for 30 min, the premix was dispensed in the assay plate including test inhibitors with 4 fold dilution series of eight concentrations. After 1 hr incubation at room temperature, TR-FRET signals were measured in duplicate using an EnVision microplate reader (Perkin Elmer, Waltham, Mass., USA). The solution in each well was excited with a laser (λ=340 nm) reflected by a dichroic mirror (D400/D505 (Perkin Elmer) through an excitation filter (UV (TRF) 340, (Perkin Elmer)), and fluorescence from Tb and BODIPY were detected through two emission filters (CFP 495 (Perkin Elmer) for Tb, Emission 520 (Perkin Elmer) for BODIPY).
The percentage of inhibition of test compounds was calculated according to equation (1) Inhibition(%)=100×(μH−T)/(μH−μL) (1)
Where T is the value of the wells containing test compounds and μH and μL are the mean values of the 0% and 100% inhibition control wells, respectively. The values of the 0 and 100% controls were the signals obtained in the absence and presence of 3 μM its parent compound, respectively. The half maximal inhibitory concentration (IC50) of test compounds was calculated by fitting the data with the logistic equation using XLfit (IDBS, Guildford, UK). The IC50 was classified according to the following activity ranks.
Background: TR-FRET usually uses a lanthanide donor and a delayed reading to cut background.

The mark [1] stands for this setting: Table 1, GST-tagged human CaMKIIδ.
The mark [2] stands for this setting: Table 4, GST-tagged human CaMKIIδ.

As usually defined, the IC50 is the point on the concentration scale where inhibition reaches its midpoint. High values mean a need for much substance, low ones inhibition by little substance. Regarding `CC(C)OCCOc1nn([C@H]2CC[C@H](N3CCOCC3)CC2)cc1Nc1ncc(-c2ccc(C#N)c(O[C@@H](C)Cn3cnnn3)c2)cn1` [Example 14, 2-(((S)-1-(1H-tetrazol-1-yl)propan-2-yl)oxy)-4-(2-((3-(2-isopropoxyethoxy)-1-((1r,4r)-4-morpholinocyclohexyl)-1H-pyrazol-4-yl)amino)pyrimidin-5-yl)benzonitrile], the IC50 under setting [1] was less than 10 nM.
For the compound `C[C@@H](Cn1cnnn1)Oc1cc(-c2cnc(Nc3cn([C@H]4CC[C@H](N5CCOCC5)CC4)nc3OCC3CCOCC3)nc2)ccc1Cl` [Example 497, 5-(3-(((S)-1-(1H-tetrazol-1-yl)propan-2-yl)oxy)-4-chlorophenyl)-N-(1-((1r,4r)-4-morpholinocyclohexyl)-3-((tetrahydro-2H-pyran-4-yl)methoxy)-1H-pyrazol-4-yl)pyrimidin-2-amine], the IC50 under setting [2] is less than 10 nM.
The same measure, in the same setting: the same measure for `COC(C)(C)CCOc1nn([C@H]2CC[C@H](N3C[C@@H](C)O[C@@H](C)C3)CC2)cc1Nc1ncc(-c2ccc(C#N)c(O[C@@H](C)Cn3cnnn3)c2)cn1` [Example 478, 2-(((S)-1-(1H-tetrazol-1-yl)propan-2-yl)oxy)-4-(2-((1-((1r,4r)-4-((2S,6R)-2,6-dimethylmorpholino)cyclohexyl)-3-(3-methoxy-3-methylbutoxy)-1H-pyrazol-4-yl)amino)pyrimidin-5-yl)benzonitrile]: less than 10 nM.
Same read-out and setting: as for `C[C@@H](Cn1cnnn1)Oc1cc(-c2cnc(Nc3cn([C@H]4CC[C@H](N5CCOCC5)CC4)nc3OCc3nccs3)nc2)ccc1Cl` [Example 504, 5-(3-(((S)-1-(1H-tetrazol-1-yl)propan-2-yl)oxy)-4-chlorophenyl)-N-(1-((1r,4r)-4-morpholinocyclohexyl)-3-(thiazol-2-ylmethoxy)-1H-pyrazol-4-yl)pyrimidin-2-amine], the figure is less than 10 nM; as for `[2H]C([2H])([2H])OCCCOc1nn([C@H]2CC[C@H](N3CCOCC3)CC2)cc1Nc1ncc(-c2ccc(Cl)c(O[C@@H](C)Cn3cnnn3)c2)cn1` [Example 512, 5-(3-(((S)-1-(1H-tetrazol-1-yl)propan-2-yl)oxy)-4-chlorophenyl)-N-(3-(3-(methoxy-d3)propoxy)-1-((1r,4r)-4-morpholinocyclohexyl)-1H-pyrazol-4-yl)pyrimidin-2-amine], less than 10 nM.
On to `CCOCCOc1nn([C@H]2CC[C@H](N3CCOCC3)CC2)cc1Nc1ncc(-c2ccc(Cl)c(O[C@@H](C)Cn3cnnn3)c2)cn1` [Example 9, 5-(3-(((S)-1-(1H-tetrazol-1-yl)propan-2-yl)oxy)-4-chlorophenyl)-N-(3-(2-ethoxyethoxy)-1-((1r,4r)-4-morpholinocyclohexyl)-1H-pyrazol-4-yl)pyrimidin-2-amine], for which the IC50 under setting [1] was less than 10 nM.
Same read-out and setting: as for `COCCCOc1nn([C@H]2CC[C@H](N3CCOCC3)CC2)cc1Nc1ncc(-c2ccc(C#N)c(O[C@@H](C)Cn3cncn3)c2)cn1` [Example 28, 2-(((S)-1-(1H-1,2,4-triazol-1-yl)propan-2-yl)oxy)-4-(2-((3-(3-methoxypropoxy)-1-((1r,4r)-4-morpholinocyclohexyl)-1H-pyrazol-4-yl)amino)pyrimidin-5-yl)benzonitrile], the figure is less than 10 nM.
With `C[C@@H]1CN([C@H]2CC[C@H](n3cc(Nc4ncc(-c5ccc(C#N)c(O[C@@H](C)Cn6cnnn6)c5)cn4)c(OCC4COC4)n3)CC2)C[C@H](C)O1` [Example 479, 2-(((S)-1-(1H-tetrazol-1-yl)propan-2-yl)oxy)-4-(2-((1-((1r,4r)-4-((2S,6R)-2,6-dimethylmorpholino)cyclohexyl)-3-(oxetan-3-ylmethoxy)-1H-pyrazol-4-yl)amino)pyrimidin-5-yl)benzonitrile], the IC50 under setting [2] is less than 10 nM.
Still for that read-out and setting: the same measure for `COCCOCCOCCOc1nn([C@H]2CC[C@H](N3CCOCC3)CC2)cc1Nc1ncc(-c2ccc(Cl)c(O[C@@H](C)Cn3cnnn3)c2)cn1` [Example 511, 5-(3-(((S)-1-(1H-tetrazol-1-yl)propan-2-yl)oxy)-4-chlorophenyl)-N-(3-(2-(2-(2-methoxyethoxy)ethoxy)ethoxy)-1-((1r,4r)-4-morpholinocyclohexyl)-1H-pyrazol-4-yl)pyrimidin-2-amine]: 10 to 100 nM; for `C[C@@H](Cn1cnnn1)Oc1cc(-c2cnc(Nc3cn([C@H]4CC[C@H](N5CCOCC5)CC4)nc3OCC3CCOC3)nc2)ccc1Cl` (stereo partly drawn) [Example 498, 5-(3-(((S)-1-(1H-tetrazol-1-yl)propan-2-yl)oxy)-4-chlorophenyl)-N-(1-((1r,4r)-4-morpholinocyclohexyl)-3-((tetrahydrofuran-3-yl)methoxy)-1H-pyrazol-4-yl)pyrimidin-2-amine]: less than 10 nM.
Turning to `COCCOCCOc1nn([C@H]2CC[C@H](N3C[C@@H](C)O[C@@H](C)C3)CC2)cc1Nc1ncc(-c2ccc(Cl)c(O[C@@H](C)Cn3cnnn3)c2)cn1` [Example 240, 5-(3-(((S)-1-(1H-tetrazol-1-yl)propan-2-yl)oxy)-4-chlorophenyl)-N-(1-((1r,4r)-4-((2S,6R)-2,6-dimethylmorpholino)cyclohexyl)-3-(2-(2-methoxyethoxy)ethoxy)-1H-pyrazol-4-yl)pyrimidin-2-amine hydrochloride], the IC50 under setting [1] is less than 10 nM.
In the case of `C[C@@H](Cn1cnnn1)Oc1cc(-c2cnc(Nc3cn([C@H]4CC[C@H](N5CCOCC5)CC4)nc3OCC3COC3)nc2)ccc1Cl` [Example 491, 5-(3-(((S)-1-(1H-tetrazol-1-yl)propan-2-yl)oxy)-4-chlorophenyl)-N-(1-((1r,4r)-4-morpholinocyclohexyl)-3-(oxetan-3-ylmethoxy)-1H-pyrazol-4-yl)pyrimidin-2-amine], under setting [2], the IC50 is less than 10 nM.
The compound `C[C@@H](Cn1cnnn1)Oc1cc(-c2cnc(Nc3cn([C@H]4CC[C@H](N5CCOCC5)CC4)nc3OCCC(C)(C)O)nc2)ccc1Cl` [Example 500, 4-((4-((5-(3-(((S)-1-(1H-tetrazol-1-yl)propan-2-yl)oxy)-4-chlorophenyl)pyrimidin-2-yl)amino)-1-((1r,4r)-4-morpholinocyclohexyl)-1H-pyrazol-3-yl)oxy)-2-methylbutan-2-ol] displayed an IC50 under setting [2] of less than 10 nM.
Compound `C[C@@H](Cn1cnnn1)Oc1cc(-c2cnc(Nc3cn([C@H]4CC[C@H](N5CCOCC5)CC4)nc3OCCCC#N)nc2)ccc1Cl` [Example 493, 4-((4-((5-(3-(((S)-1-(1H-tetrazol-1-yl)propan-2-yl)oxy)-4-chlorophenyl)pyrimidin-2-yl)amino)-1-((1r,4r)-4-morpholinocyclohexyl)-1H-pyrazol-3-yl)oxy)butanenitrile] returned an IC50 under setting [2] of less than 10 nM.
For `CCOCCOc1nn([C@H]2CC[C@H](N3CCOCC3)CC2)cc1Nc1ncc(-c2ccc(C#N)c(O[C@@H](C)Cn3cnnn3)c2)cn1` [Example 8, 2-(((S)-1-(1H-tetrazol-1-yl)propan-2-yl)oxy)-4-(2-((3-(2-ethoxyethoxy)-1-((1r,4r)-4-morpholinocyclohexyl)-1H-pyrazol-4-yl)amino)pyrimidin-5-yl)benzonitrile], under setting [1], the IC50 was less than 10 nM.
On the same count and under the same terms, the same measure for `COCCOCCOc1nn([C@H]2CC[C@H](N3CCOCC3)CC2)cc1Nc1ncc(-c2ccc(Cl)c(O[C@@H](C)Cn3cnnn3)c2)cn1` [Example 49, 5-(3-(((S)-1-(1H-tetrazol-1-yl)propan-2-yl)oxy)-4-chlorophenyl)-N-(3-(2-(2-methoxyethoxy)ethoxy)-1-((1r,4r)-4-morpholinocyclohexyl)-1H-pyrazol-4-yl)pyrimidin-2-amine hydrochloride]: less than 10 nM.
Consider `C[C@@H](Cn1cnnn1)Oc1cc(-c2cnc(Nc3cn([C@H]4CC[C@H](N5CCOCC5)CC4)nc3OCCCn3cncn3)nc2)ccc1Cl` [Example 508, N-(3-(3-(1H-1,2,4-triazol-1-yl)propoxy)-1-((1r,4r)-4-morpholinocyclohexyl)-1H-pyrazol-4-yl)-5-(3-(((S)-1-(1H-tetrazol-1-yl)propan-2-yl)oxy)-4-chlorophenyl)pyrimidin-2-amine], for which, under setting [2], the IC50 is less than 10 nM.
Same read-out and setting: as for `C[C@@H](Cn1cnnn1)Oc1cc(-c2cnc(Nc3cn([C@H]4CC[C@H](N5CCOCC5)CC4)nc3OCC3CCCOC3)nc2)ccc1Cl` (stereo partly drawn) [Example 499, 5-(3-(((S)-1-(1H-tetrazol-1-yl)propan-2-yl)oxy)-4-chlorophenyl)-N-(1-((1r,4r)-4-morpholinocyclohexyl)-3-((tetrahydro-2H-pyran-3-yl)methoxy)-1H-pyrazol-4-yl)pyrimidin-2-amine], the figure is less than 10 nM.
